Results from patent US9296725B2, “Heterocyclyl pyrimidine analogues as TYK2 inhibitors” (Cellzome Limited, priority 2012, dated 2016).
pIC50: −log10 of the molar value.

Experiments:
TYK2 = target: T1, TYK2 (Homo sapiens, UniProt P29597); assay: Kinobeads assay, TYK2 (competition binding in mixed Molt4/Ramos cell lysate, dot blot detection); conditions: Kinobeads assay, Molt4/Ramos lysate; read-out: TYK2 Band (Kinobeads assay potency, IC50)
T1 construct: endogenous in cells; host or cells: Molt4 (ATCC CRL-1582) and Ramos (ATCC CRL-1596), mixed lysate 1:2
T1 sequence (P29597 whole entry): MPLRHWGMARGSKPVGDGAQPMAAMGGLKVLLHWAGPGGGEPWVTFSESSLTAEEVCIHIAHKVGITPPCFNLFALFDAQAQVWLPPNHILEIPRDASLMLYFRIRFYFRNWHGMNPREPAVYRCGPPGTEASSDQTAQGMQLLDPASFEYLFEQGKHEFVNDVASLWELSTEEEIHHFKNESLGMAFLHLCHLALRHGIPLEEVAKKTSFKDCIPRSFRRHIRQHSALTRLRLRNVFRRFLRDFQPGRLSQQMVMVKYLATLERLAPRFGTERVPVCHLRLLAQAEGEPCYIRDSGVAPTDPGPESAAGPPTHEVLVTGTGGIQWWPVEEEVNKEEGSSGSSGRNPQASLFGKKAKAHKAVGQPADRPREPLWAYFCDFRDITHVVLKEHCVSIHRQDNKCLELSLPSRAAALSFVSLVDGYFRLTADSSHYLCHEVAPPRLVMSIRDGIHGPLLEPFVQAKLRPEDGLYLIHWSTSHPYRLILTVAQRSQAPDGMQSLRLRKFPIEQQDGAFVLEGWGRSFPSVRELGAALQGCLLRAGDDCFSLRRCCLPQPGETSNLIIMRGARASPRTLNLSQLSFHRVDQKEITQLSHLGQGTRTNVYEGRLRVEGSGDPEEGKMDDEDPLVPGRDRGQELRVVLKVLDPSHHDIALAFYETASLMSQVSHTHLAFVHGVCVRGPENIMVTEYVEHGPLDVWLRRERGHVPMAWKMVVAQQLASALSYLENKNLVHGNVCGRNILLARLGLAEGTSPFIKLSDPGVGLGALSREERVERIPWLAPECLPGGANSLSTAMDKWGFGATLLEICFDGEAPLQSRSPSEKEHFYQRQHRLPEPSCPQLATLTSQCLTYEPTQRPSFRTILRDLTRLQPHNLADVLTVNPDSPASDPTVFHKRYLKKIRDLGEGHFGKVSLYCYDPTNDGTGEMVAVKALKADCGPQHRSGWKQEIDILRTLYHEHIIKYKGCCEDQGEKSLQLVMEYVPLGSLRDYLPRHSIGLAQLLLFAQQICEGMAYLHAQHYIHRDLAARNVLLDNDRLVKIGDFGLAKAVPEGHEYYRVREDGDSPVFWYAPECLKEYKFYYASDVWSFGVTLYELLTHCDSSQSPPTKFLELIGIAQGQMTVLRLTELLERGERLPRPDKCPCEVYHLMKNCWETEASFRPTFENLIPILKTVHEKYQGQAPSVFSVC
Experimental: (§1) The compounds of the present invention as described in the previous examples were tested in a Kinobeads™ assay as described for ZAP-70 (WO-A 2007/137867). Briefly, test compounds (at various concentrations) and the affinity matrix with the immobilized aminopyrido-pyrimidine ligand 24 were added to cell lysate aliquots and allowed to bind to the proteins in 10 the lysate sample. After the incubation time the beads with captured proteins were separated from the lysate. Bound proteins were then eluted and the presence of TYK2 and JAK2 was detected and quantified using specific antibodies in a dot blot procedure and the Odyssey infrared detection system. Dose response curves for individual kinases were generated and IC50 values calculated. Kinobeads™ assays have been previously described (WO-A 2007/137867; WO-A 2006/134056).
(§2) The affinity matrix was washed two times with 15 mL of 1×DP buffer containing 0.2% NP40 (IGEPAL® CA-630, Sigma, #13021) and then resuspended in 1×DP buffer containing 0.2% NP40 (3% beads slurry). 5×DP buffer: 250 mM Tris-HCl pH 7.4, 25% Glycerol, 7.5 mM MgCl2, 750 mM NaCl, 5 mM Na3VO4; filter the 5×DP buffer through a 0.22 μm filter and store in aliquots at −80° C. The 5×DP buffer is diluted with H2O to 1×DP buffer containing 1 mM DTT and 25 mM NaF.
(§3) Stock solutions of test compounds were prepared in DMSO. In a 96 well plate 30 μL solution of diluted test compounds at 5 mM in DMSO were prepared. Starting with this solution a 1:3 dilution series (9 steps) was prepared. For control experiments (no test compound) a buffer containing 2% DMSO was used.
(§4) Molt4 cells (ATCC catalogue number CRL-1582) and Ramos cells (ATCC catalogue number CRL-1596) were grown in 1 L Spinner flasks (Integra Biosciences, #182101) in suspension in RPMI 1640 medium (Invitrogen, #21875-034) supplemented with 10% Fetal Bovine Serum (Invitrogen) at a density between 0.15×10^6 and 1.2×10^6 cells/mL. Cells were harvested by centrifugation, washed once with 1×PBS buffer (Invitrogen, #14190-094) and cell pellets were frozen in liquid nitrogen and subsequently stored at −80° C. Cells were homogenized in a Potter S homogenizer in lysis buffer: 50 mM Tris-HCl, 0.8% NP40, 5% glycerol, 150 mM NaCl, 1.5 mM MgCl2, 25 mM NaF, 1 mM sodium vanadate, 1 mM DTT, pH 7.5. One complete EDTA-free tablet (protease inhibitor cocktail, Roche Diagnostics, 1873580) per 25 mL buffer was added. The material was dounced 10 times using a mechanized POTTER S, transferred to 50 mL falcon tubes, incubated for 30 minutes on ice and spun down for 10 minutes at 20,000 g at 4° C. (10,000 rpm in Sorvall SLA600, precooled). The supernatant was transferred to an ultracentrifuge (UZ)-polycarbonate tube (Beckmann, 355654) and spun for 1 hour at 100.000 g at 4° C. (33.500 rpm in Ti50.2, precooled). The supernatant was transferred again to a fresh 50 mL falcon tube, the protein concentration was determined by a Bradford assay (BioRad) and samples containing 50 mg of protein per aliquot were prepared. The samples were immediately used for experiments or frozen in liquid nitrogen and stored frozen at −80° C.
(§5) Cell lysate (approximately 50 mg protein per plate) was thawed in a water bath at room temperature and then stored on ice. To the thawed cell lysate 1×DP 0.8% NP40 buffer containing protease inhibitors (1 tablet for 25 mL buffer; EDTA-free protease inhibitor cocktail; Roche Diagnostics 1873580) was added in order to reach a final protein concentration of 10 mg/mL total protein. The diluted cell lysate was stored on ice. Mixed Molt4/Ramos lysate was prepared by combining one volume of Molt4 lysate and two volumes of Ramos lysate (ratio 1:2).
(§6) To a 96 well filter plate (Multiscreen HTS, BV Filter Plates, Millipore #MSBVN1250) were added per well: 100 μL affinity matrix (3% beads slurry), 3 μL of compound solution, and 50 μL of diluted lysate. Plates were sealed and incubated for 3 hours in a cold room on a plate shaker (Heidolph tiramax 1000) at 750 rpm. […]

JAK2 = target: T2, JAK2 (Homo sapiens, UniProt O60674); assay: Kinobeads assay, JAK2 (competition binding in mixed Molt4/Ramos cell lysate, dot blot detection); conditions: read-out: JAK2 Band (Kinobeads assay potency, IC50)
T2 construct: endogenous in cells; host or cells: Molt4 (ATCC CRL-1582) and Ramos (ATCC CRL-1596), mixed lysate 1:2
T2 sequence (O60674 whole entry): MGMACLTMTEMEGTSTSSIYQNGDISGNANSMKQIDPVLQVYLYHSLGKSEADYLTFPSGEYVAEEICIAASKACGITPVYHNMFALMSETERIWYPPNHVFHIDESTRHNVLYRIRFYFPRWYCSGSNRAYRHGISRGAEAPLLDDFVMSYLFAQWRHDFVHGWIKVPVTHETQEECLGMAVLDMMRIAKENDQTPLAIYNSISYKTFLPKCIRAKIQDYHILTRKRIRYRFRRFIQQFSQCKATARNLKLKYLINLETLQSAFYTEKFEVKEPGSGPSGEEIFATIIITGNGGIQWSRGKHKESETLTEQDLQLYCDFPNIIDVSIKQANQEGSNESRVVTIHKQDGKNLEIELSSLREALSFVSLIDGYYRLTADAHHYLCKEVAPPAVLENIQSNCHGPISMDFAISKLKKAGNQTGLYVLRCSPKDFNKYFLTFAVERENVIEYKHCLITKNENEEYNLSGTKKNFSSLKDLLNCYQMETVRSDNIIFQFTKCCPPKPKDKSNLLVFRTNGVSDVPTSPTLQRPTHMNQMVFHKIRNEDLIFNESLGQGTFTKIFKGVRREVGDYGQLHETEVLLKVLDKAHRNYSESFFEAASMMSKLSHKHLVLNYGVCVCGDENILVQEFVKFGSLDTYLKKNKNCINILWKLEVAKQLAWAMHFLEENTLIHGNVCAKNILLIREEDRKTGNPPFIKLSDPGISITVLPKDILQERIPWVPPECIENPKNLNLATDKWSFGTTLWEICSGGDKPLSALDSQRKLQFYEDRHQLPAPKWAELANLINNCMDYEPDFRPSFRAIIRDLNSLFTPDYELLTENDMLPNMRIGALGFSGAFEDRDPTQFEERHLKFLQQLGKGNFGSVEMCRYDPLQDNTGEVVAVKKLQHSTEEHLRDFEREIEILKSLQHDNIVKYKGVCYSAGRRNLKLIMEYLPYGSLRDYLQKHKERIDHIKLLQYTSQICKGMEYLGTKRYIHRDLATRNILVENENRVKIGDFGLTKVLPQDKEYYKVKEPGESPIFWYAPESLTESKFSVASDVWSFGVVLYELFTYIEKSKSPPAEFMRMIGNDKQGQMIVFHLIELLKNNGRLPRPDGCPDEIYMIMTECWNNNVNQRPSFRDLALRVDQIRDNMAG
Experimental: as §1, §2, §3, §4, §5, §6

SMILES | pIC50 (TYK2) | pIC50 (JAK2)
CN(C)C(=O)Cn1cc(Nc2ncc(F)c(NCc3c(Cl)cccc3Cl)n2)cn1 [Example I-251] | 7.00 to 8.00 | 5.00 to 6.00
NS(=O)(=O)c1ccc(CNc2nc(Nc3cnn(CCO)c3)ncc2F)cc1 [Example I-9] | 7.00 to 8.00 | < 5.00
COc1ccccc1CNc1nc(Nc2cnn(CCO)c2)ncc1Cl [Example I-185] | 6.00 to 7.00 | 5.00 to 6.00
Cn1cc(Nc2ncc(Cl)c(NCc3ccccc3)n2)cn1 [Example I-158] | 6.00 to 7.00 | 5.00 to 6.00
OCCn1cc(Nc2ncc(F)c(NCc3c(F)cccc3F)n2)cn1 [Example I-204] | ≥ 8.00 | 5.00 to 6.00
NC(=O)Cn1cc(Nc2ncc(F)c(NCc3c(F)cc(F)cc3F)n2)cn1 [Example I-157] | 7.00 to 8.00 | 5.00 to 6.00
N#CC1CN(C(=O)Cn2cc(Nc3ncc(Cl)c(NCc4ccccc4)n3)cn2)C1 [Example I-274] | 7.00 to 8.00 | 5.00 to 6.00
NS(=O)(=O)c1cccc(CNc2nc(Nc3cnn(CCO)c3)ncc2Cl)c1 [Example I-199] | 6.00 to 7.00 | 5.00 to 6.00
COc1ccc(Cl)c(CNc2nc(Nc3cnn(CC(=O)NC(C)C)c3)ncc2F)c1F [Example I-84] | ≥ 8.00 | 6.00 to 7.00
CN(C)C(=O)Cn1cc(Nc2ncc(Cl)c(NCc3c(F)cc(F)cc3F)n2)cn1 [Example I-16] | 7.00 to 8.00 | 5.00 to 6.00
CCOc1ccc(F)c(CNc2nc(Nc3cnn(CC(N)=O)c3)ncc2Cl)c1F [Example I-267] | 7.00 to 8.00 | 6.00 to 7.00
Cc1cnc(Nc2cnn(CCO)c2)nc1NCc1ccccc1 [Example I-169] | 6.00 to 7.00 | 5.00 to 6.00
CNC(=O)Cn1cc(Nc2ncc(Cl)c(NCc3cccc(F)c3)n2)cn1 [Example I-212] | 6.00 to 7.00 | 6.00 to 7.00
COc1ccc(F)c(CNc2nc(Nc3cnn(CC(=O)N4CCOCC4)c3)ncc2F)c1F [Example I-24] | ≥ 8.00 | 5.00 to 6.00
Cn1cc(Nc2ncc(Cl)c(NCc3cc(F)cc(F)c3)n2)cn1 [Example I-176] | 7.00 to 8.00 | 7.00 to 8.00
Fc1ccc(F)c(CNc2nc(Nc3cnn(C(F)F)c3)ncc2Cl)c1 [Example I-223] | 6.00 to 7.00 | 6.00 to 7.00
COc1ccc(Cl)c(CNc2nc(Nc3cnn(CC(=O)N4CCOCC4)c3)ncc2F)c1F [Example I-81] | ≥ 8.00 | 6.00 to 7.00
COc1ccc(F)c(CNc2ccnc(Nc3cnn(CC(=O)N[C@H](C)CO)c3)n2)c1F [Example I-124] | 7.00 to 8.00 | 5.00 to 6.00
Clc1cnc(Nc2cnn(Cc3ncco3)c2)nc1NCc1ccccc1 [Example I-249] | 5.00 to 6.00 | 5.00 to 6.00
OCCn1cc(Nc2ncc(Cl)c(NCc3c(F)cc(F)cc3F)n2)cn1 [Example I-15] | 7.00 to 8.00 | 6.00 to 7.00
COc1cc(F)c(CNc2nc(Nc3cnn(CC(=O)N4CCOCC4)c3)ncc2C)c(F)c1 [Example I-29] | ≥ 8.00 | 5.00 to 6.00
COc1ccc(F)c(CNc2nc(Nc3cnn(CC(=O)N(C)C)c3)ncc2C)c1F [Example I-20] | ≥ 8.00 | 6.00 to 7.00
CS(=O)(=O)c1ccc(F)c(CNc2nc(Nc3cnn(CCO)c3)ncc2F)c1 [Example I-115] | 7.00 to 8.00 | 5.00 to 6.00
COc1ccc(F)c(CNc2ccnc(Nc3cnn(CC(=O)N[C@@H]4C[C@@H]4F)c3)n2)c1F [Example I-128] | 7.00 to 8.00 | 5.00 to 6.00
[2H]C([2H])(O)C([2H])([2H])n1cc(Nc2ncc(Cl)c(NCc3cccc(F)c3)n2)cn1 [Example I-232] | 6.00 to 7.00 | 5.00 to 6.00
O=C(Cn1cc(Nc2ncc(Cl)c(NCc3ccccc3)n2)cn1)N1CCNCC1 [Example I-187] | 7.00 to 8.00 | 6.00 to 7.00
COc1ccc(Cl)c(CNc2nc(Nc3cnn(C)c3)ncc2F)c1F [Example I-85] | 7.00 to 8.00 | 6.00 to 7.00
COc1cc(F)c(CNc2ccnc(Nc3cnn(CC(=O)NC(C)C)c3)n2)c(F)c1 [Example I-64] | 7.00 to 8.00 | < 5.00

Now from value to compound:

pIC50 (TYK2) | pIC50 (JAK2) | SMILES
≥ 8.00 | 6.00 to 7.00 | Cc1cnc(Nc2cnn(CC(=O)N3CCOCC3)c2)nc1NCc1c(F)cc(S(N)(=O)=O)cc1F [Example I-378]
7.00 to 8.00 | 6.00 to 7.00 | OCCn1cc(Nc2ncc(Cl)c(NCc3c(Cl)cccc3Cl)n2)cn1 [Example I-323]
7.00 to 8.00 | 5.00 to 6.00 | NC(=O)Cn1cc(Nc2nccc(NCc3c(F)cccc3F)n2)cn1 [Example I-313]
7.00 to 8.00 | 7.00 to 8.00 | Cc1cnc(Nc2cnn(CC(=O)N3CCOCC3)c2)nc1NCc1cc(F)cc(F)c1 [Example I-348]
7.00 to 8.00 | 5.00 to 6.00 | OCCn1cc(Nc2ncc(Cl)c(NCc3cccc(OC(F)F)c3)n2)cn1 [Example I-322]
5.00 to 6.00 | 5.00 to 6.00 | CS(=O)(=O)c1ccccc1CNc1nc(Nc2cnn(CC3CC3)c2)ncc1Cl [Example I-476]
6.00 to 7.00 | 5.00 to 6.00 | Cc1cnc(Nc2cnn(CC(=O)N(C)C)c2)nc1NCc1cc(F)cc(C(F)(F)F)c1 [Example I-330]
6.00 to 7.00 | 6.00 to 7.00 | CC(C)(O)Cn1cc(Nc2ncc(Cl)c(NCc3cc(F)ccc3F)n2)cn1 [Example I-292]
5.00 to 6.00 | 5.00 to 6.00 | CS(=O)(=O)CCn1cc(Nc2ncc(Cl)c(NCc3ccccc3)n2)cn1 [Example I-289]
6.00 to 7.00 | 5.00 to 6.00 | C[C@@H](C(N)=O)n1cc(Nc2ncc(Cl)c(NCc3ccccc3)n2)cn1 [Example I-291]
6.00 to 7.00 | 5.00 to 6.00 | O=C(Cn1cc(Nc2ncc(Cl)c(NCc3ccccn3)n2)cn1)N1CCOCC1 [Example I-338]
6.00 to 7.00 | 5.00 to 6.00 | CS(=O)(=O)Cc1cccc(CNc2nc(Nc3cnn(CC(N)=O)c3)ncc2Cl)c1 [Example I-443]
7.00 to 8.00 | 6.00 to 7.00 | COc1ccc(F)c(CNc2nc(Nc3cnn(C)c3)ncc2C)c1F [Example I-302]
7.00 to 8.00 | 5.00 to 6.00 | COc1ccc(F)c(CNc2nc(Nc3cnn(CC(=O)NC(C)C)c3)ncc2Cl)c1F [Example I-427]
7.00 to 8.00 | 6.00 to 7.00 | CNC(=O)Cn1cc(Nc2ncc(Cl)c(NCc3cc(C(F)(F)F)ccc3Cl)n2)cn1 [Example I-280]
7.00 to 8.00 | 5.00 to 6.00 | CNC(=O)Cn1cc(Nc2ncc(F)c(NCc3cc(S(C)(=O)=O)ccc3OC)n2)cn1 [Example I-448]
≥ 8.00 | 6.00 to 7.00 | Cc1cnc(Nc2cnn(CC(=O)N3CCOCC3)c2)nc1NCc1c(F)ccc(F)c1F [Example I-423]
7.00 to 8.00 | 5.00 to 6.00 | CN(C)C(=O)Cn1cc(Nc2ncc(Cl)c(NCc3cc(OC(F)F)ccc3F)n2)cn1 [Example I-414]
7.00 to 8.00 | 5.00 to 6.00 | O=C(Cn1cc(Nc2nccc(NCc3c(F)cc(F)cc3F)n2)cn1)NCC1COCCO1 (centres unmarked) [Example I-432]
6.00 to 7.00 | 6.00 to 7.00 | CS(=O)(=O)c1ccc(F)cc1CNc1nc(Nc2cn[nH]c2)ncc1F [Example I-486]
5.00 to 6.00 | 5.00 to 6.00 | CS(=O)(=O)c1cccc(CNc2nc(Nc3cnn(CC(F)F)c3)ncc2Cl)c1 [Example I-467]
